Source: ChEMBL document CHEMBL1201862, “PubChem BioAssay data set” (2004)
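96-well plates; 48 h exposure; 5 concentrations. Endpoints by linear interpolation between flanking doses. Not reached: highest tested concentration assigned. GI50: concentration for 50% inhibition of growth.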 Activity calls are given as the source filed them. Rule as the data show it: active = GI50 up to about 1.1 µM and inactive = higher.

Legend:
Test in all cases: DTP human tumour cell line panel, 48 h
SF-539 = test system: SF-539
M14 = test system: M14
DU-145 = test system: DU-145
SN12C = test system: SN12C
UO-31 = test system: UO-31
786-0 = test system: 786-0
CCRF-CEM = test system: CCRF-CEM
NCI-H522 = test system: NCI-H522
HCC 2998 = test system: HCC 2998
ACHN = test system: ACHN
SK-MEL-2 = test system: SK-MEL-2
A549 = test system: A549
RXF 393 = test system: RXF 393
BT-549 = test system: BT-549
HCT-15 = test system: HCT-15
U-251 = test system: U-251
HCT-116 = test system: HCT-116
K562 = test system: K562
UACC-257 = test system: UACC-257
OVCAR-3 = test system: OVCAR-3
T47D = test system: T47D
Malme-3M = test system: Malme-3M
SK-MEL-28 = test system: SK-MEL-28
SF-268 = test system: SF-268
UACC-62 = test system: UACC-62
A498 = test system: A498
SR = test system: SR
HOP-92 = test system: HOP-92
EKVX = test system: EKVX
SW-620 = test system: SW-620
MDA-N = test system: MDA-N
KM12 = test system: KM12
CAKI-1 = test system: CAKI-1
OVCAR-5 = test system: OVCAR-5
SK-MEL-5 = test system: SK-MEL-5
LOX IMVI = test system: LOX IMVI
MOLT-4 = test system: MOLT-4
IGROV-1 = test system: IGROV-1
MCF7 = test system: MCF7
OVCAR-4 = test system: OVCAR-4
TK-10 = test system: TK-10
OVCAR-8 = test system: OVCAR-8
NCI/ADR-RES = test system: NCI/ADR-RES
HOP-62 = test system: HOP-62
NCI-H23 = test system: NCI-H23
MDA-MB-435 = test system: MDA-MB-435
HT-29 = test system: HT-29
NCI-H460 = test system: NCI-H460
SNB-75 = test system: SNB-75
NCI-H226 = test system: NCI-H226
SK-OV-3 = test system: SK-OV-3
COLO 205 = test system: COLO 205
SF-295 = test system: SF-295
MDA-MB-231 = test system: MDA-MB-231
SNB-19 = test system: SNB-19
RPMI-8226 = test system: RPMI-8226
PC-3 = test system: PC-3

Question: With `O=C1C=Cc2c(I)sc(I)c21` as the compound, how does the GI50 (SF-539) read?
Answer: 25.6 µM (inactive)

Question: What about the GI50 (M14) of the same compound?
Answer: 27 µM (inactive)

Question: And the GI50 (DU-145)?
Answer: 30 µM (inactive)

Question: And the GI50 (SN12C)?
Answer: 19.5 µM (inactive)

Question: What about the GI50 (UO-31) of the same compound?
Answer: 15.8 µM (inactive)

Question: What about the GI50 (786-0) of the same compound?
Answer: 10.3 µM (inactive)

Question: And the GI50 (CCRF-CEM)?
Answer: 2.88 µM (inactive)

Question: And the GI50 (NCI-H522)?
Answer: 1.99 µM (inactive)

Question: What about the GI50 (HCC 2998) of the same compound?
Answer: 18.4 µM (inactive)

Question: And the GI50 (ACHN)?
Answer: 36.6 µM (inactive)

Question: What about the GI50 (SK-MEL-2) of the same compound?
Answer: 20.1 µM (inactive)

Question: What about the GI50 (A549) of the same compound?
Answer: 26.2 µM (inactive)

Question: What about the GI50 (RXF 393) of the same compound?
Answer: 20.6 µM (inactive)

Question: What about the GI50 (BT-549) of the same compound?
Answer: 17.6 µM (inactive)

Question: And the GI50 (HCT-15)?
Answer: 17.3 µM

Question: And the GI50 (U-251)?
Answer: 17 µM (inactive)

Question: What about the GI50 (HCT-116) of the same compound?
Answer: 15.7 µM (inactive)

Question: And the GI50 (K562)?
Answer: 14.3 µM (inactive)

Question: What about the GI50 (UACC-257) of the same compound?
Answer: 20 µM (inactive)

Question: And the GI50 (OVCAR-3)?
Answer: 19.3 µM (inactive)

Question: What about the GI50 (T47D) of the same compound?
Answer: 18.1 µM (inactive)

Question: And the GI50 (Malme-3M)?
Answer: 14.5 µM (inactive)

Question: What about the GI50 (SK-MEL-28) of the same compound?
Answer: 19.8 µM (inactive)

Question: What about the GI50 (SF-268) of the same compound?
Answer: 12.4 µM (inactive)

Question: And the GI50 (UACC-62)?
Answer: 28.8 µM (inactive)

Question: What about the GI50 (A498) of the same compound?
Answer: 48.5 µM (inactive)

Question: And the GI50 (SR)?
Answer: 4 µM (inactive)

Question: And the GI50 (HOP-92)?
Answer: 17 µM (inactive)

Question: What about the GI50 (EKVX) of the same compound?
Answer: 26.1 µM (inactive)

Question: What about the GI50 (SW-620) of the same compound?
Answer: 13.4 µM (inactive)

Question: What about the GI50 (MDA-N) of the same compound?
Answer: 24.9 µM (inactive)

Question: What about the GI50 (KM12) of the same compound?
Answer: 20 µM (inactive)

Question: What about the GI50 (CAKI-1) of the same compound?
Answer: 18.7 µM (inactive)

Question: What about the GI50 (OVCAR-5) of the same compound?
Answer: 25.1 µM (inactive)

Question: What about the GI50 (SK-MEL-5) of the same compound?
Answer: 74.5 µM (inactive)

Question: What about the GI50 (LOX IMVI) of the same compound?
Answer: 12.1 µM (inactive)

Question: And the GI50 (MOLT-4)?
Answer: 12 µM (inactive)

Question: What about the GI50 (IGROV-1) of the same compound?
Answer: 15.9 µM (inactive)

Question: And the GI50 (MCF7)?
Answer: 18.4 µM (inactive)

Question: What about the GI50 (OVCAR-4) of the same compound?
Answer: 20 µM (inactive)

Question: And the GI50 (TK-10)?
Answer: 30.2 µM (inactive)

Question: What about the GI50 (OVCAR-8) of the same compound?
Answer: 18.9 µM (inactive)

Question: What about the GI50 (NCI/ADR-RES) of the same compound?
Answer: 23.3 µM (inactive)

Question: And the GI50 (HOP-62)?
Answer: 38.6 µM (inactive)

Question: What about the GI50 (NCI-H23) of the same compound?
Answer: 18.9 µM (inactive)

Question: What about the GI50 (MDA-MB-435) of the same compound?
Answer: 19.4 µM (inactive)

Question: And the GI50 (HT-29)?
Answer: 23.9 µM (inactive)

Question: And the GI50 (NCI-H460)?
Answer: > 100 µM (inactive)

Question: And the GI50 (SNB-75)?
Answer: 30.1 µM (inactive)

Question: And the GI50 (NCI-H226)?
Answer: 31.3 µM (inactive)

Question: What about the GI50 (SK-OV-3) of the same compound?
Answer: 89.7 µM (inactive)

Question: What about the GI50 (COLO 205) of the same compound?
Answer: 19 µM (inactive)

Question: And the GI50 (SF-295)?
Answer: 46.8 µM (inactive)

Question: What about the GI50 (MDA-MB-231) of the same compound?
Answer: 29.9 µM (inactive)

Question: For `CC(C)OC(=O)[C@@H](O)[C@H](CO)C1=CC([Si](C)(C)c2ccccc2)=CON1`, which GI50 (SF-539) is on record?
Answer: > 100 µM (inactive)

Question: And the GI50 (M14)?
Answer: > 100 µM (inactive)

Question: What about the GI50 (DU-145) of the same compound?
Answer: > 100 µM (inactive)

Question: What about the GI50 (UO-31) of the same compound?
Answer: > 100 µM (inactive)

Question: And the GI50 (786-0)?
Answer: > 100 µM (inactive)

Question: And the GI50 (HCC 2998)?
Answer: > 100 µM (inactive)

Question: And the GI50 (ACHN)?
Answer: > 100 µM (inactive)

Question: And the GI50 (SK-MEL-2)?
Answer: > 100 µM (inactive)

Question: What about the GI50 (SNB-19) of the same compound?
Answer: > 100 µM (inactive)

Question: And the GI50 (A549)?
Answer: > 100 µM (inactive)

Question: And the GI50 (RXF 393)?
Answer: > 100 µM (inactive)

Question: What about the GI50 (BT-549) of the same compound?
Answer: > 100 µM (inactive)

Question: And the GI50 (HCT-15)?
Answer: > 100 µM

Question: What about the GI50 (U-251) of the same compound?
Answer: > 100 µM (inactive)

Question: What about the GI50 (HCT-116) of the same compound?
Answer: > 100 µM (inactive)

Question: And the GI50 (K562)?
Answer: > 100 µM (inactive)

Question: What about the GI50 (UACC-257) of the same compound?
Answer: > 100 µM (inactive)

Question: What about the GI50 (OVCAR-3) of the same compound?
Answer: > 100 µM (inactive)

Question: What about the GI50 (T47D) of the same compound?
Answer: > 100 µM (inactive)

Question: And the GI50 (SK-MEL-28)?
Answer: > 100 µM (inactive)

Question: What about the GI50 (SF-268) of the same compound?
Answer: > 100 µM (inactive)

Question: And the GI50 (UACC-62)?
Answer: > 100 µM (inactive)

Question: And the GI50 (RPMI-8226)?
Answer: > 100 µM (inactive)

Question: What about the GI50 (A498) of the same compound?
Answer: > 100 µM (inactive)

Question: What about the GI50 (SR) of the same compound?
Answer: > 100 µM (inactive)

Question: And the GI50 (EKVX)?
Answer: > 100 µM (inactive)

Question: What about the GI50 (SW-620) of the same compound?
Answer: > 100 µM (inactive)

Question: What about the GI50 (KM12) of the same compound?
Answer: > 100 µM (inactive)

Question: What about the GI50 (CAKI-1) of the same compound?
Answer: > 100 µM (inactive)

Question: And the GI50 (OVCAR-5)?
Answer: > 100 µM (inactive)

Question: What about the GI50 (SK-MEL-5) of the same compound?
Answer: > 100 µM (inactive)

Question: And the GI50 (PC-3)?
Answer: > 100 µM (inactive)

Question: What about the GI50 (LOX IMVI) of the same compound?
Answer: > 100 µM (inactive)

Question: And the GI50 (MOLT-4)?
Answer: > 100 µM (inactive)

Question: What about the GI50 (MCF7) of the same compound?
Answer: > 100 µM (inactive)

Question: What about the GI50 (OVCAR-4) of the same compound?
Answer: > 100 µM (inactive)

Question: What about the GI50 (TK-10) of the same compound?
Answer: > 100 µM (inactive)

Question: What about the GI50 (OVCAR-8) of the same compound?
Answer: > 100 µM (inactive)

Question: What about the GI50 (NCI/ADR-RES) of the same compound?
Answer: > 100 µM (inactive)

Question: What about the GI50 (HOP-62) of the same compound?
Answer: > 100 µM (inactive)

Question: And the GI50 (NCI-H23)?
Answer: > 100 µM (inactive)

Question: What about the GI50 (MDA-MB-435) of the same compound?
Answer: > 100 µM (inactive)

Question: And the GI50 (HT-29)?
Answer: > 100 µM (inactive)

Question: And the GI50 (NCI-H460)?
Answer: > 100 µM (inactive)

Question: And the GI50 (SNB-75)?
Answer: 1.26 µM (inactive)

Question: And the GI50 (NCI-H226)?
Answer: > 100 µM (inactive)

Question: And the GI50 (SK-OV-3)?
Answer: > 100 µM (inactive)

Question: What about the GI50 (COLO 205) of the same compound?
Answer: > 100 µM (inactive)

Question: And the GI50 (SF-295)?
Answer: > 100 µM (inactive)

Question: What about the GI50 (MDA-MB-231) of the same compound?
Answer: > 100 µM (inactive)
